The source of these data is ChEMBL document CHEMBL3596170, “Synthesis of 1H-1,2,3-triazole linked aryl(arylamidomethyl) - dihydrofurocoumarin hybrids and analysis of their cytotoxicity” (2015).

Holding throughout (format): functional
One experiment has as its system U-937. Kind of experiment: Cytotoxicity against human U937 cells assessed as cell death after 72 hrs by MTT assay.
A short description of experiment [1]: Cytotoxicity against human CEM13 cells assessed as cell death after 72 hrs by MTT assay.
In the next experiment the test system is MT4. The experiment in a line: Cytotoxicity against human MT4 cells assessed as cell death after 72 hrs by MTT assay. On the technique in general: Tetrazolium dyes change colour on reduction, which living cells bring about.

For the compound `CC(C)C1(N=[N+]=[N-])Oc2cc3oc(=O)ccc3cc2C1=O` (configuration not stated), the CTD50 was 53 µM in the experiment with U-937, 49 µM in experiment [1] and 50 µM with MT4.
`CC(C)C1(N=[N+]=[N-])Oc2c(cc3ccc(=O)oc3c2CN2CCN(C)CC2)C1=O` (configuration not stated): the CTD50 in the experiment on U-937 was found to be 45 µM; in experiment [1], 58 µM; with MT4, 62 µM.
On the same counts, the results for `CC(C)C1(n2cc(-c3ccccc3)nn2)Oc2cc3oc(=O)ccc3cc2C1=O` (configuration not stated) are 31 µM, 51 µM and 70 µM.
On the same counts, the results for `COc1ccc(-c2cn(C3(C(C)C)Oc4cc5oc(=O)ccc5cc4C3=O)nn2)c(OC)c1OC` (configuration not stated) are 45 µM, 32 µM and 27 µM.
With `COc1cc(-c2cn(C3(C(C)C)Oc4cc5oc(=O)ccc5cc4C3=O)nn2)ccc1OCc1ccccc1` (configuration not stated), the CTD50 turned out to be 28 µM in the experiment with U-937, 25 µM in experiment [1] and 28 µM in the experiment on MT4.
Take `CC(C)C1(n2cc(-c3ccc4c(c3)OCCO4)nn2)Oc2cc3oc(=O)ccc3cc2C1=O` (configuration not stated): the CTD50 came to 8 µM in the experiment with U-937, 15 µM in experiment [1] and 11 µM in the experiment with MT4.
Take `CC(C)C1(n2cc(-c3cc([N+](=O)[O-])ccc3O)nn2)Oc2cc3oc(=O)ccc3cc2C1=O` (configuration not stated): the CTD50 was found to be 20 µM in the experiment with U-937, 21 µM in experiment [1] and 11 µM in the experiment on MT4.
Consider `CC(C)C1(n2cc(CNC(=O)c3cc(O)cc(O)c3)nn2)Oc2cc3oc(=O)ccc3cc2C1=O` (configuration not stated), for which the figures for the CTD50 (with U-937; in experiment [1]; in the experiment with MT4) were 23 µM, 16 µM and 22 µM, respectively.
In the same order, the values of `COc1cc(C(=O)NCc2cn(C3(C(C)C)Oc4cc5oc(=O)ccc5cc4C3=O)nn2)ccc1O` (configuration not stated) are 8 µM, 9 µM and 10 µM.
In the same order, the values of `COc1cc(OC)cc(C(=O)NCc2cn(C3(C(C)C)Oc4cc5oc(=O)ccc5cc4C3=O)nn2)c1` (configuration not stated) are 45 µM, 18 µM and 19 µM.
In the case of `CC(C)C1(n2cc(CNC(=O)c3cc(O)c(O)c(O)c3)nn2)Oc2cc3oc(=O)ccc3cc2C1=O` (configuration not stated), the figures for the CTD50 (with U-937; in experiment [1]; with MT4) were 20 µM, 11 µM and 12 µM, respectively.
In the case of `CC(C)C1(n2cc(CNC(=O)c3ccc(N)cc3O)nn2)Oc2cc3oc(=O)ccc3cc2C1=O` (configuration not stated), the CTD50 in the experiment with U-937 turned out to be 24 µM; in experiment [1], 17 µM; in the experiment with MT4, 13 µM.
On the same counts, the results for `COc1ccc(/C=C/C(=O)NCc2cn(C3(C(C)C)Oc4cc5oc(=O)ccc5cc4C3=O)nn2)c(OC)c1` (configuration not stated) are 25 µM, 30 µM and 22 µM.
As to `CC(C)C1(n2cc(-c3ccccc3)nn2)Oc2c(cc3ccc(=O)oc3c2CN2CCN(C)CC2)C1=O` (configuration not stated), the CTD50 in the experiment with U-937 came out at 25 µM; in experiment [1], 32 µM; in the experiment on MT4 it was 33 µM.
In the same order, the values of `CC(C)C1(n2cc(-c3ccc4c(c3)OCCO4)nn2)Oc2c(cc3ccc(=O)oc3c2CN2CCN(C)CC2)C1=O` (configuration not stated) are 10 µM, 10 µM and 13 µM.
For the compound `CC(C)C1(n2cc(-c3cc([N+](=O)[O-])ccc3O)nn2)Oc2c(cc3ccc(=O)oc3c2CN2CCN(C)CC2)C1=O` (configuration not stated), the results for the CTD50 (in the experiment with U-937; in experiment [1]; in the experiment with MT4) were 17 µM, 11 µM and 11 µM, respectively.
In the case of `COc1ccc(/C=C/C(=O)NCc2cn(C3(C(C)C)Oc4c(cc5ccc(=O)oc5c4CN4CCN(C)CC4)C3=O)nn2)c(OC)c1` (configuration not stated), the results for the CTD50 (with U-937; in experiment [1]; in the experiment with MT4) were 16 µM, 16 µM and 13 µM, respectively.
With `COc1cccc2c1C(=O)c1c(O)c3c(c(O)c1C2=O)C[C@@](O)(C(=O)CO)C[C@@H]3O[C@H]1C[C@H](N)[C@H](O)[C@H](C)O1` [DOXORUBICIN], the CTD50 in the experiment on U-937 turned out to be 0.2 µM; in experiment [1], 7.4 µM; in the experiment with MT4, 3.4 µM.
In the same order, the values of `COc1c(C(C)C)oc2cc3oc(=O)ccc3cc12` [PEUCEDANIN] are 58 µM, 81 µM and 67 µM.
